Laboratory results as given in the supplement of paper PMC7840683.
Where a name gives a salt, the structure may show the parent alone. ± gives the standard deviation of the averaged measurements.

Tested on: HepaRG
Experiment: LDH release cytotoxicity, % of total lysis control; higher = more cytotoxic
Details: 48 h
In short: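 Duplicate wells of single-lot HepaRG cells, grown on collagen I-coated 96-well plates, received eight-point half-log series of test chemicals with 100 µM as the top concentration. Exposure lasted 48 h in serum-free induction medium with 0.5% DMSO, while total lysis wells received 0.1% Triton X. Resorufin fluorescence (CytoTox-ONE, Tecan Safire) was used to quantify LDH leaked into 50 µL of spent medium. Values for percent cytotoxicity were normalized to on-plate vehicle and total lysis controls and averaged across the duplicates.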

CCOP(=S)(OCC)SCSCC [Phorate]
Details	LDH release cytotoxicity [%]
0.03162 µM	-1.85 ± 0.87
0.1 µM	-2.54 ± 0.18
0.3162278 µM	-2.48 ± 0.53
1 µM	-2.38 ± 0.48
3.16228 µM	-2.32 ± 0.28
10 µM	-1.2 ± 0.89
31.6228 µM	-1.22 ± 0.69
100 µM	-0.0088 ± 0.35

CCOP(=S)(OCC)SCn1c(=O)oc2cc(Cl)ccc21 [Phosalone]
Details	LDH release cytotoxicity [%]
0.03162 µM	-2.44 ± 0.92
0.1 µM	-3.01 ± 0.25
0.3162278 µM	-2.19 ± 0.66
1 µM	-2.28 ± 0.84
3.16228 µM	-2.21 ± 0.19
10 µM	-2.4 ± 0.9
31.6228 µM	-1.63 ± 1.2
100 µM	-1.09 ± 0.67

COP(=S)(OC)SCN1C(=O)c2ccccc2C1=O [Phosmet]
Details	LDH release cytotoxicity [%]
0.03162 µM	-1.04 ± 0.14
0.1 µM	-1.58 ± 0.89
0.3162278 µM	-0.933 ± 0.42
1 µM	-1.6 ± 0.93
3.16228 µM	-1.56 ± 0.51
10 µM	-1.14 ± 0.52
31.6228 µM	-1.65 ± 0.99
100 µM	0.331 ± 0.7

Nc1c(Cl)c(Cl)nc(C(=O)O)c1Cl [Picloram]
Details	LDH release cytotoxicity [%]
0.031623 µM	-0.672 ± 0.84
0.1 µM	-3.68 ± 0.1
0.316228 µM	-3.74 ± 1.5
1 µM	-3.09 ± 0.29
3.16228 µM	-2.76 ± 0.56
10 µM	-2.73 ± 0.51
31.6228 µM	-2.11 ± 0.71
100 µM	0.666 ± 0.78

COC=C(C(=O)OC)c1ccccc1COc1cccc(C(F)(F)F)n1 [Picoxystrobin]
Details	LDH release cytotoxicity [%]
0.03162 µM	-4.13 ± 1
0.1 µM	-3.11 ± 1.4
0.3162278 µM	-4.04 ± 0.58
1 µM	-4.28 ± 1.9
3.16228 µM	-5.14 ± 0.47
10 µM	20 ± 2.6
31.6228 µM	37 ± 6.9
100 µM	60 ± 9.4

CCc1ccc(CCOc2ccc(CC3SC(=O)NC3=O)cc2)nc1 (configuration not stated) [Pioglitazone hydrochloride]
Details	LDH release cytotoxicity [%]
0.03162 µM	-0.765 ± 0.13
0.1 µM	-1.11 ± 0.35
0.3162278 µM	-1.39 ± 0.062
1 µM	-1.98 ± 0.67
3.16228 µM	-2.26 ± 0.28
10 µM	-3.4 ± 0.42
31.6228 µM	-3.94 ± 0.23
100 µM	-0.63 ± 0.3

C1CNCCN1 [Piperazine]
Details	LDH release cytotoxicity [%]
0.03162 µM	-6.9 ± 0.6
0.1 µM	-7.27 ± 0.36
0.3162278 µM	-6.65 ± 1
1 µM	-7.16 ± 1.9
3.16228 µM	-6.57 ± 0.29
10 µM	-6.04 ± 1.4
31.6228 µM	-6.14 ± 0.77
100 µM	-6.01 ± 1.2

CCCCOCCOCCOCc1cc2c(cc1CCC)OCO2 [Piperonyl butoxide]
Details	LDH release cytotoxicity [%]
0.031939 µM	-0.462 ± 1.1
0.101 µM	-2.71 ± 0.75
0.31939 µM	-2.69 ± 1.8
1.01 µM	-3.07 ± 0.035
3.1939 µM	-2.38 ± 0.19
10.1 µM	-1.93 ± 0.26
31.939 µM	-0.729 ± 0.32
101 µM	4.54 ± 0.55

CS(=O)(=O)c1ccc(C(CC2CCC(=O)C2)C(=O)Nc2cnccn2)cc1Cl (configuration not stated) [Piragliatin]
Details	LDH release cytotoxicity [%]
0.03162 µM	-0.668 ± 0.37
0.1 µM	-1.54 ± 1.1
0.3162278 µM	-0.661 ± 0.31
1 µM	-1.64 ± 1
3.16228 µM	-1.28 ± 0.2
10 µM	-0.831 ± 0.26
31.6228 µM	-1.24 ± 0.96
100 µM	-0.692 ± 0.1

Cc1nc(N(C)C)nc(OC(=O)N(C)C)c1C [Pirimicarb]
Details	LDH release cytotoxicity [%]
0.03162 µM	-1.14 ± 0.57
0.1 µM	-1.49 ± 0.94
0.3162278 µM	-1.89 ± 0.61
1 µM	-1.97 ± 1.2
3.16228 µM	-1.7 ± 0.12
10 µM	-1.84 ± 0.15
31.6228 µM	-1.4 ± 0.24
100 µM	-0.895 ± 1.2

CCN(CC)c1nc(C)cc(OP(=S)(OC)OC)n1 [Pirimiphos-methyl]
Details	LDH release cytotoxicity [%]
0.03162 µM	0.287 ± 2
0.1 µM	-1.19 ± 1.6
0.3162278 µM	-1.08 ± 0.22
1 µM	-0.906 ± 0.67
3.16228 µM	-1.49 ± 0.077
10 µM	-0.783 ± 0.59
31.6228 µM	-1.01 ± 0.3
100 µM	-1.29 ± 0.47

Cc1cccc(Nc2cc(Cl)nc(SCC(=O)O)n2)c1C [Pirinixic acid]
Details	LDH release cytotoxicity [%]
0.03162 µM	-1.32 ± 0.91
0.1 µM	-1.59 ± 0.0083
0.3162278 µM	-0.978 ± 0.7
1 µM	-0.873 ± 0.35
3.16228 µM	-1.38 ± 0.058
10 µM	-1.43 ± 0.6
31.6228 µM	0.274 ± 0.74
100 µM	2.17 ± 0.81

O=S(=O)(O)C(F)(F)C(F)(F)C(F)(F)C(F)(F)F [Potassium perfluorobutanesulfonate]
Details	LDH release cytotoxicity [%]
0.0332039 µM	-0.897 ± 0.78
0.105 µM	-1.25 ± 1.1
0.332039 µM	-2.33 ± 0.91
1.05 µM	-2.02 ± 0.33
3.32039 µM	-1.34 ± 0.56
10.5 µM	-1.05 ± 0.085
33.2039 µM	-1.53 ± 0.46
105 µM	0.458 ± 0.54

O=S(=O)(O)C(F)(F)C(F)(F)C(F)(F)C(F)(F)C(F)(F)C(F)(F)F [Potassium perfluorohexanesulfonate]
Details	LDH release cytotoxicity [%]
0.03162 µM	-0.914 ± 0.81
0.1 µM	-1.15 ± 0.31
0.3162278 µM	-1.06 ± 1.8
1 µM	-1.98 ± 1.6
3.16228 µM	-1.95 ± 1.2
10 µM	-0.831 ± 1.7
31.6228 µM	-1.52 ± 1
100 µM	-0.438 ± 1.6

O=S(=O)(O)C(F)(F)C(F)(F)C(F)(F)C(F)(F)C(F)(F)C(F)(F)C(F)(F)C(F)(F)F [Potassium perfluorooctanesulfonate]
Details	LDH release cytotoxicity [%]
0.03036 µM	-2.82 ± 0.99
0.096 µM	-1.72 ± 1.2
0.303579 µM	-2.71 ± 0.49
0.96 µM	-2.314 ± 0.0065
3.03579 µM	-2.44 ± 0.43
9.6 µM	-1.36 ± 0.89
30.3579 µM	-1.03 ± 0.88
96 µM	27.2 ± 1.1

C#CCC1=C(C)C(OC(=O)C2C(C=C(C)C)C2(C)C)CC1=O (configuration not stated) [Prallethrin]
Details	LDH release cytotoxicity [%]
0.0314647 µM	-1.54 ± 0.38
0.0995 µM	-0.874 ± 0.13
0.3146466 µM	-2.55 ± 0.44
0.995 µM	-2.33 ± 0.64
3.14647 µM	-1.9 ± 0.26
9.95 µM	-1.44 ± 0.14
31.4647 µM	-2.39 ± 0.63
99.5 µM	3.9 ± 1.4

CCC(C)C(=O)OC1CC(O)C=C2C=CC(C)C(CCC(O)CC(O)CC(=O)O)C21 (configuration not stated) [Pravastatin sodium]
Details	LDH release cytotoxicity [%]
0.03162 µM	-0.512 ± 0.58
0.1 µM	-1.91 ± 0.093
0.3162278 µM	-0.491 ± 0.075
1 µM	-1.07 ± 0.62
3.16228 µM	-0.742 ± 0.055
10 µM	0.11 ± 0.94
31.6228 µM	0.155 ± 0.37
100 µM	3.76 ± 0.56

CC12C=CC(=O)C=C1CCC1C2C(=O)CC2(C)C1CCC2(O)C(=O)CO (configuration not stated) [Prednisone]
Details	LDH release cytotoxicity [%]
0.03162 µM	-1.86 ± 0.28
0.1 µM	-1.83 ± 0.41
0.3162278 µM	-2.31 ± 0.061
1 µM	-1.54 ± 0.39
3.16228 µM	-1.77 ± 0.042
10 µM	-1.84 ± 0.37
31.6228 µM	-1.61 ± 0.33
100 µM	-0.167 ± 0.094

CCCN(CCOc1c(Cl)cc(Cl)cc1Cl)C(=O)n1ccnc1 [Prochloraz]
Details	LDH release cytotoxicity [%]
0.031623 µM	0.136 ± 1.1
0.1 µM	-2.541 ± 0.013
0.316228 µM	-3.11 ± 1.4
1 µM	-2.56 ± 0.4
3.16228 µM	-0.716 ± 0.26
10 µM	-0.855 ± 0.78
31.6228 µM	13.7 ± 0.66
100 µM	64.6 ± 0.66
